This note sets out measurements from US10654890B2, “Cyclic peptide derivative, method for preparing same and composition thereof” (priority 2014, dated 2020).

The nature of one data set: Water solubility. Format: physicochemical.
The next data set concerns NGF gene. Nature of the data set: NGF gene expression in culture astrocyte (real time PCR). The class given is cell-based, mouse. The following applies: 25 μM; from 8 hours to 24 hours after the addition; p<0.05 vs before the addition; calibrated to GAPDH. Here is the method:
By adding the cyclic peptide derivative of 25 μM to an astrocyte of the secondary subculture, the influence on expression of the gene of NGF, GDNF, VFGF-A, BDNF, and VGF as a representative neurotrophic factor was determined over time.
Except that a cell suspension of an astrocyte of the secondary subculture was prepared to have cell concentration of 3×10^5 cells/ml and the time for exposing the astrocyte to the above 25 μM cyclic peptide derivative was set at 0, 1, 2, 4, 8, 12, and 24 hours, the astrocyte was cultured in the same order as above <6>. As a control group, LG-D-MEM (0% FBS) not added with any cyclic peptide derivative was used.
Each astrocyte which has been exposed to the cyclic peptide derivative during each time described above was collected, and then, by using RNeasy Mini Kit (QIAGEN), extraction and purification of total RNA were carried out. The extracted total RNA was quantified by using Nano Photometer (IMPLEN). For the reverse transcription reaction, cDNA was synthesized by reacting 500 ng of total RNA with PrimeScript RT Master Mix (TaKaRa) at 37° C. for 15 minutes using GeneAmp PCR System 9600 (PERKIN ELMER), and the reaction was terminated by heating for 5 seconds at 85° C. […]

Data set [1] has as its system senescence-accelerated model mouse SAMP8. Nature of the data set: Morris water maze test. Conditions: SAMP8, oral 25 μg/kg/day; vs SAMP8; p<0.05. Format: in vivo. An excerpt: As a mouse for an in vivo test of the cyclic peptide derivative, senescence-accelerated model mouse SAMP8 which is used as a cognitive disorder model animal of initial Alzheimer's disease accompanied with aging was selected, and as a control, SAMR1 mouse with normal aging was selected.
19-Week old male mice of SAMR1 and SAMP8 were purchased from Japan SLC, Inc., and divided into 5 groups, i.e., mouse group with normal aging (SAMR1), senescence-accelerated model mouse group (SAMP8), {P8+donepezil hydrochloride 1250 μg/kg/day} group as a positive control, and {P8+cyclic peptide derivative 2.5 μg/kg/day} group and {P8+cyclic peptide derivative 25 μg/kg/day} group as a test group. […] After 10 days of an acclimation period, all mice were provided with standard meal (MEQ, Oriental Yeast Company) and body weight of the animal was recorded everyday during the entire test period. […]
(3) {P8+donepezil hydrochloride 1250 μg/kg/day} group: As a positive control, donepezil hydrochloride (Sanyo Chemical Laboratories CO., LTD.) was dissolved in MQ and prepared to have a concentration of 1250 μg/kg (bodyweight), and then orally administered to a SAMP8 for 5 weeks by using a gastric sonde. The concentration was accurately calculated based on the bodyweight which has been measured every day. […]

Data set [2] deals with normal human dermal fibroblasts (NHDF). Briefly: Cell proliferation test, normal human dermal fibroblasts. The class given is cell-based. Here is the method: To see whether or not the astrocyte proliferation accelerating activity of the cyclic peptide derivative is a specific proliferative activity that is limited only to an astrocyte or it is based on a common cell proliferative activity, investigations were made by using normal human dermal fibroblasts (NHDF), human liver cancer cells (HepG2), and human leukemia cells (K562).
Seeding of each cell on a 96 well plate was carried out by adding 100 μl of a cell suspension in which normal human dermal fibroblasts are prepared at 2.5×10^4 cells/ml or human liver cancer cells and human leukemia cells are prepared at 5×10^4 cells/ml. Since the cyclic peptide derivative is added after dissolving it in PBS (−), only PBS (−) was added as a control.

Take `CCC1(C)Oc2cc(ccc2O)C(O)C(NC)C(=O)NC(C(C)C)C(=O)NC1C(=O)NC(CCC(=O)O)C(=O)O` (stereo not drawn) [cyclic peptide derivative]: the water solubility result in the data set “Water solubility” is on record as “water soluble”. Besides, the “expression of the gene of NGF” value in the data set on NGF gene was “increased”. Also, the “spatial learning ability (time in zone (%) in quadrant 1)” value in data set [1] is recorded as “significantly recovered”. Also, in data set [2], the “cytotoxicity for normal cells” value is “low”. In addition, in data set [2] (25 μM), the cell proliferation rate was approximately 80% and the “proliferation of NHDF cells compared to the group with no addition” value was “inhibited in a significant sense”.
